Source: patent publication US20100298141A1, “SUBSTITUTED PYRIDINE N-OXIDE HERBICIDES” (E. I. DU PONT DE NEMOURS AND COMPANY, priority 2007, published 2010)

Experiments:
[1] = system: wheat; experiment: Test A pre-/postemergence greenhouse test; type: in vivo, Triticum aestivum; conditions: for Plant response rating, Wheat: 0 to 100 scale where 0 is no effect and 100 is complete control; for Wheat plant response rating: 0 to 100 scale
Procedure, shortened: (§1)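 Planting was into mixed loam soil and sand; preemergence treatment followed as a directed soil spray. Concurrently, emerged plants (one- to two-leaf, 2–10 cm) received postemergence applications of identically formulated compound (non-phytotoxic solvent, surfactant). After approximately ten days under greenhouse conditions, injury was judged by eye against untreated plants.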

[2] = system: corn; experiment: Test A pre-/postemergence greenhouse test; type: in vivo, Zea mays; conditions: for Plant response rating, Corn: 0 to 100 scale where 0 is no effect and 100 is complete control; for Corn plant response rating: 0 to 100 scale
Procedure, shortened: as §1

[3] = system: redroot pigweed; experiment: Test A pre-/postemergence greenhouse test; type: in vivo, Amaranthus retroflexus; conditions: for Plant response rating, Pigweed: 0 to 100 scale where 0 is no effect and 100 is complete control; for Pigweed plant response rating: 0 to 100 scale
Procedure, shortened: as §1

[4] = system: duck salad; experiment: Test C flooded paddy test; type: in vivo, Heteranthera limosa; conditions: Flood
Procedure, shortened: (§2)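 In-water treatment: compound dosed into 3 cm flood over soil, water level unchanged throughout. Controls run alongside; visual assessment at day 13–15.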

[5] = system: crabgrass; experiment: Test A pre-/postemergence greenhouse test; type: in vivo, Digitaria sanguinalis; conditions: for Plant response rating, Crabgrass, Large: 0 to 100 scale where 0 is no effect and 100 is complete control; for Crabgrass, Large plant response rating: 0 to 100 scale
Procedure, shortened: as §1

[6] = system: giant foxtail; experiment: Test A pre-/postemergence greenhouse test; type: in vivo, Setaria faberi; conditions: for Plant response rating, Foxtail, Giant: 0 to 100 scale where 0 is no effect and 100 is complete control; for Foxtail, Giant plant response rating: 0 to 100 scale
Procedure, shortened: as §1

[7] = system: velvetleaf; experiment: Test A pre-/postemergence greenhouse test; type: in vivo, Abutilon theophrasti; conditions: for Plant response rating, Velvetleaf: 0 to 100 scale where 0 is no effect and 100 is complete control; for Velvetleaf plant response rating: 0 to 100 scale
Procedure, shortened: as §1

[8] = system: morningglory; experiment: Test A pre-/postemergence greenhouse test; type: in vivo, Ipomoea spp.; conditions: for Plant response rating, Morningglory: 0 to 100 scale where 0 is no effect and 100 is complete control; for Morningglory plant response rating: 0 to 100 scale
Procedure, shortened: as §1

[9] = system: rice; experiment: Test C flooded paddy test; type: in vivo, Oryza sativa; conditions: Flood
Procedure, shortened: as §2

[10] = system: umbrella sedge; experiment: Test C flooded paddy test; type: in vivo, Cyperus difformis; conditions: Flood
Procedure, shortened: as §2

[11] = system: barnyardgrass; experiment: Test A pre-/postemergence greenhouse test; type: in vivo, Echinochloa crus-galli; conditions: for Plant response rating, Barnyardgrass: 0 to 100 scale where 0 is no effect and 100 is complete control; for Barnyardgrass plant response rating: 0 to 100 scale
Procedure, shortened: as §1

[12] = system: barnyardgrass; experiment: Test C flooded paddy test; type: in vivo, Echinochloa crus-galli; conditions: Flood
Procedure, shortened: as §2

[13] = Postemergence, 500 g ai/ha, 0 is no effect, 100 is complete control
[14] = Preemergence, 125 g ai/ha, 0 no effect, 100 complete control
[15] = 62 g ai/ha, scale 0 to 100 (0 no effect, 100 complete control)
[16] = 250 g ai/ha, scale 0 to 100, 0 no effect, 100 complete control, 13 to 15 days
[17] = Postemergence, 125 g ai/ha, 0 is no effect, 100 is complete control
[18] = 31 g ai/ha, scale 0 to 100 (0 no effect, 100 complete control)
[19] = 62 g ai/ha, scale 0 to 100, 0 no effect, 100 complete control, 13 to 15 days
[20] = 125 g ai/ha, scale 0 to 100, 0 no effect, 100 complete control, 13 to 15 days

SMILES: Cn1nc(C(F)(F)F)c(C[S+]([O-])c2cc(Cl)cc[n+]2[O-])c1OCC(F)(F)F (stereo not shown) [Compound 68]
- Plant response rating, Wheat ([1]; Postemergence, 125 g ai/ha): 50
- Wheat plant response rating [1, 13]: 60
- Wheat plant response rating [1, 14]: 30
- Plant response rating, Wheat ([1]; Preemergence, 500 g ai/ha): 70
- Plant response rating, Corn ([2]; Postemergence, 125 g ai/ha): 30
- Corn plant response rating [2, 13]: 70
- Corn plant response rating [2, 14]: 0
- Plant response rating, Corn ([2]; Preemergence, 500 g ai/ha): 70
- Plant response rating, Pigweed ([3]; Postemergence, 125 g ai/ha): 40
- Pigweed plant response rating [3, 13]: 80
- Pigweed plant response rating [3, 14]: 40
- Plant response rating, Pigweed ([3]; Preemergence, 500 g ai/ha): 100
- Plant response rating, Ducksalad [4, 15]: 85
- Plant response rating, Ducksalad [4, 16]: 90
- Plant response rating, Crabgrass, Large ([5]; Postemergence, 125 g ai/ha): 50
- Crabgrass, Large plant response rating [5, 13]: 90
- Crabgrass, Large plant response rating [5, 14]: 40
- Plant response rating, Crabgrass, Large ([5]; Preemergence, 500 g ai/ha): 100
- Plant response rating, Foxtail, Giant ([6]; Postemergence, 125 g ai/ha): 70
- Foxtail, Giant plant response rating [6, 13]: 90
- Foxtail, Giant plant response rating [6, 14]: 70
- Plant response rating, Foxtail, Giant ([6]; Preemergence, 500 g ai/ha): 100
- Plant response rating, Velvetleaf ([7]; Postemergence, 125 g ai/ha): 50
- Velvetleaf plant response rating [7, 13]: 60
- Velvetleaf plant response rating [7, 14]: 0
- Plant response rating, Velvetleaf ([7]; Preemergence, 500 g ai/ha): 60
- Plant response rating, Morningglory ([8]; Postemergence, 125 g ai/ha): 10
- Morningglory plant response rating [8, 13]: 70
- Morningglory plant response rating [8, 14]: 30
- Plant response rating, Morningglory ([8]; Preemergence, 500 g ai/ha): 80
- Plant response rating, Rice [9, 15]: 0
- Plant response rating, Rice [9, 16]: 80
- Plant response rating, Sedge, Umbrella [10, 15]: 100
- Plant response rating, Sedge, Umbrella [10, 16]: 100
- Plant response rating, Barnyardgrass ([11]; Postemergence, 125 g ai/ha): 50
- Barnyardgrass plant response rating [11, 13]: 80
- Barnyardgrass plant response rating [11, 14]: 30
- Plant response rating, Barnyardgrass ([11]; Preemergence, 500 g ai/ha): 100
- Plant response rating, Barnyardgrass [12, 15]: 0
- Plant response rating, Barnyardgrass [12, 16]: 20

SMILES: Cn1nc(C(F)(F)F)c(CS(=O)(=O)c2cc(F)cc[n+]2[O-])c1Cl [Compound 41]
- Wheat plant response rating [1, 17]: 0
- Wheat plant response rating [1, 13]: 0
- Wheat plant response rating [1, 14]: 0
- Plant response rating, Wheat ([1]; Preemergence, 500 g ai/ha): 0
- Corn plant response rating [2, 17]: 0
- Corn plant response rating [2, 13]: 0
- Corn plant response rating [2, 14]: 0
- Plant response rating, Corn ([2]; Preemergence, 500 g ai/ha): 30
- Pigweed plant response rating [3, 17]: 0
- Pigweed plant response rating [3, 13]: 0
- Pigweed plant response rating [3, 14]: 0
- Plant response rating, Pigweed ([3]; Preemergence, 500 g ai/ha): 0
- Plant response rating, Ducksalad [4, 18]: 75
- Plant response rating, Ducksalad [4, 19]: 75
- Plant response rating, Ducksalad [4, 20]: 75
- Plant response rating, Ducksalad [4, 16]: 80
- Crabgrass, Large plant response rating [5, 17]: 0
- Crabgrass, Large plant response rating [5, 13]: 0
- Crabgrass, Large plant response rating [5, 14]: 0
- Plant response rating, Crabgrass, Large ([5]; Preemergence, 500 g ai/ha): 0
- Foxtail, Giant plant response rating [6, 17]: 0
- Foxtail, Giant plant response rating [6, 13]: 0
- Foxtail, Giant plant response rating [6, 14]: 0
- Plant response rating, Foxtail, Giant ([6]; Preemergence, 500 g ai/ha): 0
- Velvetleaf plant response rating [7, 17]: 0
- Velvetleaf plant response rating [7, 13]: 0
- Velvetleaf plant response rating [7, 14]: 0
- Plant response rating, Velvetleaf ([7]; Preemergence, 500 g ai/ha): 0
- Morningglory plant response rating [8, 17]: 0
- Morningglory plant response rating [8, 13]: 0
- Morningglory plant response rating [8, 14]: 0
- Plant response rating, Morningglory ([8]; Preemergence, 500 g ai/ha): 20
- Plant response rating, Rice [9, 18]: 0
- Plant response rating, Rice [9, 19]: 0
- Plant response rating, Rice [9, 20]: 0
- Plant response rating, Rice [9, 16]: 15
- Plant response rating, Sedge, Umbrella [10, 18]: 80
- Plant response rating, Sedge, Umbrella [10, 19]: 80
- Plant response rating, Sedge, Umbrella [10, 20]: 80
- Plant response rating, Sedge, Umbrella [10, 16]: 80
- Barnyardgrass plant response rating [11, 17]: 0
- Barnyardgrass plant response rating [11, 13]: 0
- Barnyardgrass plant response rating [11, 14]: 0
- Plant response rating, Barnyardgrass ([11]; Preemergence, 500 g ai/ha): 60
- Plant response rating, Barnyardgrass [12, 18]: 0
- Plant response rating, Barnyardgrass [12, 19]: 0
- Plant response rating, Barnyardgrass [12, 20]: 0
- Plant response rating, Barnyardgrass [12, 16]: 0
